According to patent US10023562B2, “Heteroaryl substituted pyridyl compounds useful as kinase modulators” (BRISTOL-MYERS SQUIBB COMPANY, priority 2012, dated 2018):
Read-outs that look alike come from different tables or passages of the source.

System: TLR2 induced IL-6 in peripheral blood mononuclear cells (PBMCs)
Experiment: PBMC TLR2 Induced IL-6 Assay
Type: cell-based
Conditions: 10 μg/ml lipoteichoic acid for 5 hours, IL-6 by ELISA; for IC50: values without asterisk, read-out: Cell IC50
Protocol: PBMC TLR2 Induced IL-6 Assay Peripheral blood mononuclear cells (PBMCs) were isolated from human blood containing the anti-coagulant EDTA (2.5 mM) by centrifugation over a FICOLL® gradient. […] At the end of the culture, plates were centrifuged at 1800 rpm for 10 minutes to pellet the cells. Supernatants were harvested and analyzed for IL-6 levels by ELISA (BD Biosciences, San Jose, Calif.).

[1] = Homo sapiens, PBMC, 5 h, values marked * are EC50, read-out: Cell EC50 (values marked *)
[2] = human PBMC, values marked * are EC50, read-out: Cell EC50 (values marked *)

| Compound | EC50 [1] [nM] | other results |
| --- | --- | --- |
| CC(C)(O)[C@H](F)CNC(=O)c1cnc(Nc2ncc(C#N)cc2Cl)cc1NC1CCOCC1F (some centres unmarked) [Example 79] | 494 | – |
| CC(C)Nc1cc(Nc2ncc(F)cc2F)ncc1C(=O)NC[C@@H](F)C(C)(C)O [Example 80] | 335 | – |
| CC(C)(O)[C@H](F)CNC(=O)c1cnc(Nc2ccc(Cl)cn2)cc1NC1CC1 [Example 81] | 96 | – |
| CC(=O)N[C@H]1CC[C@H](NC(=O)c2cnc(Nc3ncc(C#N)cc3F)cc2NC2CC2)CC1 [Example 83] | 771 | – |
| CC(C)(O)[C@H](F)CNC(=O)c1cnc(Nc2ncc(C#N)cn2)cc1NC1CCC(F)C1 (some centres unmarked) [Example 86] | 349 | – |
| CC(C)(O)[C@H](F)CNC(=O)c1cnc(Nc2ncc(F)cc2F)cc1NC1CC1 [Example 89] | 491 | – |
| CC(C)(O)[C@H](F)CNC(=O)c1cnc(Nc2ncc(C#N)cc2Cl)cc1NC12CC(C1)C2 [Example 90] | 243 | – |
| C[C@@H](CO)Nc1cc(Nc2ncc(C#N)cc2F)ncc1C(=O)NC[C@@H](F)C(C)(C)O [Example 91] | 178 | – |
| CC(C)Nc1cc(Nc2ncc(C#N)cc2Cl)ncc1C(=O)N[C@H]1CC[C@H](O)CC1 [Example 92] | 269 | – |
| COC(=O)Cn1cc(Cl)c(Nc2cc(NC(C)C)c(C(=O)NC[C@@H](F)C(C)(C)O)cn2)n1 [Example 93] | 394 | – |
| CC(C)(O)[C@H](F)CNC(=O)c1cnc(Nc2ncncc2F)cc1NC1CC1 [Example 94] | 391 | – |
| CC(C)(O)[C@H](F)CNC(=O)c1cnc(Nc2ncncc2Cl)cc1NC1CCOCC1 [Example 95] | 501 | – |
| CC(C)(O)[C@H](F)CNC(=O)c1cnc(Nc2ncncc2Cl)cc1NC1CCCOC1 (some centres unmarked) [Example 96] | – | IC50 (Homo sapiens, PBMC, 5 h): 1550 nM |
| CC(C)(O)[C@H](F)CNC(=O)c1cnc(Nc2ncc(C#N)cc2F)cc1NC1CCCOC1 (some centres unmarked) [Example 97] | – | IC50 (Homo sapiens, PBMC, 5 h): 418 nM |
| CC(C)(O)[C@H](F)CNC(=O)c1cnc(Nc2ncc(C#N)cc2F)cc1NC1CCCOC1 (some centres unmarked) [Example 98] | – | IC50 (human PBMC): 690 nM |
| CCC(C)Nc1cc(Nc2ncc(C#N)cn2)ncc1C(=O)NC[C@@H](F)C(C)(C)O (some centres unmarked) [Example 99] | – | IC50 (Homo sapiens, PBMC, 5 h): 475 nM |
| C[C@H](CO)Nc1cc(Nc2ncc(F)cc2F)ncc1C(=O)NC[C@@H](F)C(C)(C)O [Example 100] | 308 | – |
| C[C@@H](CO)Nc1cc(Nc2ncc(C#N)cn2)ncc1C(=O)NC[C@@H](F)C(C)(C)O [Example 101] | 380 | – |
| CC(C)(F)CNc1cc(Nc2ncc(C#N)cc2Cl)ncc1C(=O)NC1CCC(C(C)(C)O)CC1 (centres unmarked) [Example 103] | 195 | – |
| CC(C)(O)[C@H](F)CNC(=O)c1cnc(Nc2ncc(C#N)cc2Cl)cc1NC1CCCCC1O (some centres unmarked) [Example 104] | 199 | – |
| CC(C)(O)[C@H](F)CNC(=O)c1cnc(Nc2ncncc2Cl)cc1NC1CC1 [Example 105] | 336 | – |
| CC(=O)N[C@H]1CC[C@H](NC(=O)c2cnc(Nc3ncncc3Cl)cc2NC(C)C)CC1 [Example 106] | 433 | – |
| CC(C)(O)[C@H](F)CNC(=O)c1cnc(Nc2ncc(C#N)cn2)cc1N[C@H]1CCC[C@H]1F [Example 107] | 757 | – |
| CC(C)(O)[C@H](F)CNC(=O)c1cnc(Nc2ncc(F)cc2F)cc1NC1CCOCC1F (some centres unmarked) [Example 108] | 368 | – |

| Compound | EC50 [1] [nM] | other results |
| --- | --- | --- |
| CC(C)Nc1cc(Nc2ncc(O)cn2)ncc1C(=O)NC[C@@H](F)C(C)(C)O [Example 111] | 653 | – |
| COc1cnc(Nc2cc(NC3CCC3)c(C(=O)NC[C@@H](F)C(C)(C)O)cn2)nc1 [Example 112] | 87 | – |
| Cc1cnc(Nc2cc(NC(C)C)c(C(=O)NC[C@@H](F)C(C)(C)O)cn2)nc1 [Example 113] | 558 | – |
| CC(C)(O)[C@H](F)CNC(=O)c1cnc(Nc2ncc(C#N)cc2F)cc1NC1CCC(F)C1 (some centres unmarked) [Example 114] | 56 | – |
| CC(C)Nc1cc(Nc2ncc(C#N)cc2F)ncc1C(=O)N[C@H]1CC[C@H](C(=O)NC(C)C)CC1 [Example 116] | 130 | – |
| CCC(O)(CC)[C@H](F)CNC(=O)c1cnc(Nc2ncc(C#N)cn2)cc1NC(C)C [Example 117] | 202 | – |
| CC(C)Nc1cc(Nc2ncc(C#N)cc2F)ncc1C(=O)N[C@H]1CC[C@H](C(=O)NC2CC2)CC1 [Example 118] | 172 | – |
| CC(C)(O)[C@H](F)CNC(=O)c1cnc(Nc2ncc(C#N)cc2F)cc1NC12CC3CC(CC(C3)C1)C2 [Example 119] | 736 | – |
| CC(C)Nc1cc(Nc2ncc(C#N)cc2F)ncc1C(=O)NCCc1ccc(S(N)(=O)=O)cc1 [Example 121] | 49 | – |
| CC(C)(O)[C@H](F)CNC(=O)c1cnc(Nc2ncc(C#N)cc2F)cc1Nc1cccc(CO)c1 [Example 122] | 56 | – |
| CC(C)(O)[C@H](F)CNC(=O)c1cnc(Nc2ncc(Cl)cc2F)cc1NC1CC1 [Example 124] | 98 | – |
| CC(C)(O)[C@H](F)CNC(=O)c1cnc(Nc2ncc(C#N)cc2F)cc1Nc1cccc(O)c1 [Example 125] | 85 | – |
| CC(C)(O)[C@H](F)CNC(=O)c1cnc(Nc2ncc(C#N)cc2F)cc1NCC(F)(F)C(C)(C)O [Example 126] | 83 | – |
| CC(C)Nc1cc(Nc2ncc(C#N)cc2F)ncc1C(=O)NCCCOC(C)(C)C [Example 127] | 254 | – |
| CC(C)(O)[C@H](F)CNC(=O)c1cnc(Nc2ncc(C#N)cc2F)cc1Nc1cccc(S(N)(=O)=O)c1 [Example 128] | 224 | – |
| Cc1cnc(Nc2cc(NC(C)C)c(C(=O)NC[C@@H](F)C(C)(C)O)cn2)c(F)c1 [Example 129] | – | EC50 [2]: 398 nM |
| COc1cccc(Nc2cc(Nc3ncc(C#N)cc3F)ncc2C(=O)NC[C@@H](F)C(C)(C)O)c1 [Example 130] | 89 | – |
| CC(C)Nc1cc(Nc2ccnc(N)n2)ncc1C(=O)NC[C@@H](F)C(C)(C)O [Example 131] | 137 | – |
| CC(C)Nc1cc(Nc2ncncc2N)ncc1C(=O)NC[C@@H](F)C(C)(C)O [Example 132] | 862 | – |
| CC(C)(O)[C@H](F)CNC(=O)c1cnc(Nc2ncc(C#N)cc2F)cc1NC12CCC(O)(CC1)C2 [Example 133] | 85 | – |
| CC(C)(O)[C@H](F)CNC(=O)c1cnc(Nc2ncc(C#N)cc2F)cc1Nc1cccc(NS(C)(=O)=O)c1 [Example 134] | 203 | – |
| CC(C)(O)[C@H](F)CNC(=O)c1cnc(Nc2ncc(C#N)cc2F)cc1Nc1cccc(C(N)=O)c1 [Example 135] | 129 | – |
| CC(C)Nc1cc(Nc2ncc(C#N)c(N)n2)ncc1C(=O)NC[C@@H](F)C(C)(C)O [Example 136] | 63 | – |
| CC(C)Nc1cc(Nc2ncc(C#N)cc2F)ncc1C(=O)N[C@H]1CC[C@H](C(C)(C)O)CC1 [Example 137] | 72 | – |

| Compound | EC50 [1] [nM] | other results |
| --- | --- | --- |
| CCCNc1cc(Nc2ncc(C#N)cc2Cl)ncc1C(=O)NC[C@@H](F)C(C)(C)O [Example 138] | 108 | – |
| CCCNc1cc(Nc2ncc(C#N)cc2F)ncc1C(=O)NC[C@@H](F)C(C)(C)O [Example 139] | 114 | – |
| CC(C)CCNc1cc(Nc2ncc(C#N)cc2Cl)ncc1C(=O)NC[C@@H](F)C(C)(C)O [Example 140] | 241 | – |
| CC(C)CCNc1cc(Nc2ncc(C#N)cc2F)ncc1C(=O)NC[C@@H](F)C(C)(C)O [Example 141] | 412 | – |
| CC(C)(O)[C@H](F)CNC(=O)c1cnc(Nc2ncc(C#N)cc2F)cc1Nc1ccc(C(N)=O)cc1 [Example 142] | 93 | – |
| CC(C)(O)[C@H](F)CNC(=O)c1cnc(Nc2ncc(C#N)cc2Cl)cc1Nc1cccc(C(N)=O)c1 [Example 143] | 126 | – |
| Cn1nnnc1-c1cccc(Nc2cc(Nc3ncc(C#N)cc3Cl)ncc2C(=O)NC[C@@H](F)C(C)(C)O)c1 [Example 146] | 509 | – |
| Cn1nnnc1-c1ccc(Nc2cc(Nc3ncc(C#N)cn3)ncc2C(=O)NC[C@@H](F)C(C)(C)O)cc1 [Example 147] | 439 | – |
| Cn1nnnc1-c1ccc(Nc2cc(Nc3ncc(C#N)cc3Cl)ncc2C(=O)NC[C@@H](F)C(C)(C)O)cc1 [Example 148] | 111 | – |
| CS(=O)(=O)[C@H]1CC[C@H](NC(=O)c2cnc(Nc3ncc(C#N)cc3Cl)cc2NC2CCOCC2)CC1 [Example 149] | 193 | – |
| CC(C)(O)[C@H](F)CNC(=O)c1cnc(Nc2ncc(C#N)cc2Cl)cc1N[C@H]1CC[C@](C)(O)CC1 [Example 150] | 62 | – |
| CS(=O)(=O)[C@H]1CC[C@H](NC(=O)c2cnc(Nc3ncc(C#N)cc3Cl)cc2NC2CC2)CC1 [Example 151] | 187 | – |
| CC(C)(O)[C@H](F)CNC(=O)c1cnc(Nc2ncc(C#N)cc2Cl)cc1N[C@H]1CC[C@@](C)(O)CC1 [Example 152] | 260 | – |
| CC(C)(O)[C@H](F)CNC(=O)c1cnc(Nc2ncc(C#N)cc2Cl)cc1Nc1ccc2ncsc2c1 [Example 153] | 439 | – |
| CC(C)(O)[C@H](F)CNC(=O)c1cnc(Nc2ncc(C#N)c(N)n2)cc1NC1CC1 [Example 154] | 529 | – |
| CC(C)CNc1cc(Nc2ncc(C#N)cc2Cl)ncc1C(=O)NC[C@@H](F)C(C)(C)O [Example 155] | 309 | – |
| CC(C)Nc1cc(Nc2ncc(C#N)cc2Cl)ncc1C(=O)NC[C@H](F)C(C)(C)O [Example 156] | 124 | – |
| CS(=O)(=O)[C@H]1CC[C@H](NC(=O)c2cnc(Nc3ncc(C#N)cc3F)cc2Nc2cccc(C(N)=O)c2)CC1 [Example 161] | 303 | – |
| CC(C)(O)[C@H](F)CNC(=O)c1cnc(Nc2ncc(C#N)cc2Cl)cc1Nc1cccc(C#N)c1 [Example 162] | 330 | – |
| CC(Nc1cc(Nc2ncc(C#N)cn2)ncc1C(=O)NC[C@@H](F)C(C)(C)O)C1CC1 (some centres unmarked) [Example 163] | 459 | – |
| CC(C)(O)[C@H](F)CNC(=O)c1cnc(Nc2ncc(C#N)cc2F)cc1NC1COC1 [Example 164] | – | EC50 [2]: 174 nM |
| COC(=O)N[C@H]1CC[C@H](NC(=O)c2cnc(Nc3ncc(C#N)cc3F)cc2NC(C)C)CC1 [Example 165] | 279 | – |
| CC(C)Nc1cc(Nc2ncc(C#N)cc2F)ncc1C(=O)NC1CCC(O)(c2ccnn2C)CC1 (centres unmarked) [Example 166] | 202 | – |
